Results taken from PMC3433414, “Oral Administration of the Pimelic Diphenylamide HDAC Inhibitor HDACi 4b Is Unsuitable for Chronic Inhibition of HDAC Activity in the CNS In Vivo” (PLoS ONE, 2012).

Columns and labels:
[1] = system: diversity panel of 72 binding and 29 enzyme assays; experiment: Cerep Diversity Profile, overall; conditions: 10 µM, duplicate
Text: (§1) In addition to the HDAC profiling performed, we also queried 4b for any apparent potential off-target effects, which could complicate any finding of efficacy or adverse events in vivo due to ‘polypharmacy’. This was accomplished by screening against a ‘diversity panel’ of 72 binding and 29 enzyme assays, comprised of roughly equal numbers of selective central and peripheral therapeutically relevant targets (Cerep Diversity Profile). This panel included representative targets from diverse enzyme families, G protein coupled receptors, steroid nuclear receptors, voltage- and ligand-gated ion channels. While not totally inclusive, it is a useful tool for discovery compounds to assess their viability as proof of concept molecules to specifically query a particular target. 4b was initially screened at 10 µM in duplicate. The full set of results is provided as Table S1. […] This clean in vitro profile was considered acceptable to proceed to ADME and pharmacokinetic studies.

[2] = Permeability and efflux in Caco2 monolayers; assay type: in vitro ADME; conditions: human
Description: Caco-2 cells (obtained from ECACC) were used after a 21-day cell culture period in 24-well Transwell plates (seeding density of 2×10^5 cells/well). Test compounds (10 µM) were dissolved in Hanks’ Balanced Salt Solution (HBSS) containing 25 mM HEPES (pH 7.4) and added to either the apical or basolateral chambers of a Transwell plate assembly. Duplicate wells were prepared per assay condition. Lucifer Yellow was added to the apical buffer in all wells to assess integrity of the cell layers by monitoring Lucifer Yellow permeation. As Lucifer Yellow (LY) cannot freely permeate lipophilic barriers, a high degree of LY transport indicates poor integrity of the cell layer.
After 1 hr incubation at 37°C, aliquots were taken from the acceptor chamber of each Transwell and added to acetonitrile containing analytical internal standard (carbamazepine) in a 96 well plate. Concentrations of test compound in the samples were measured by high performance liquid-chromatography/mass spectroscopy (LC-MS/MS).
Apparent permeability (Papp) values were calculated from the relationship: [drawing 4] […]
Acceptor = Chamber of Transwell in to which permeation of compound is measured: basal for A>B experiments and apical for B>A experiments.
The Efflux ratios, as an indication of active efflux from the apical cell surface, were calculated using the ratio of Papp B>A/Papp A>B.

[3] = system: P-glycoprotein (Pgp, MDR1); experiment: Effective efflux ratio in MDR1-MDCK cells; assay type: in vitro ADME; conditions: human, pH 7.4; MDCK overexpressing MDR1
Description: The MDR1-MDCKII and wild type MDCKII cell lines (obtained from SOLVO Biotechnology) were cultured in accordance with the guidelines provided by SOLVO Biotechnology. Both wild-type MDCK and MDR1-MDCK cells were seeded at a cell density of 2.3×10^5 cells/well into 24-well Transwell plates and cultured for three days to form monolayers. Test compound was loaded into the donor compartments of the Transwell plate (24-well) bearing MDR1-MDCK or wild type MDCK monolayers. Test compound was added to either the apical or basolateral chambers of the Transwell plate assembly at a concentration of 10 µM in Hanks’ Balanced Salt Solution containing 25 mM HEPES (pH 7.4). Lucifer Yellow was added to the apical buffer in all wells and its permeation monitored to assess integrity of the cell layer. […]
After 1 h incubation at 37°C, aliquots were taken from both chambers and added to acetonitrile containing analytical internal standard (carbamazepine) in a 96-well plate. Concentrations of compound in the samples were measured by LC-MS/MS. Concentrations of LY in the samples were measured using a fluorescence plate reader.
The apparent permeability (Papp) values of test compound were determined for both the apical to basal (A>B) and basal to apical (B>A) permeation and the efflux ratio (B>A: A>B) determined in both the wild type MDCK and MDR1-MDCK cells. […]

B1 (h) = target: T1, B1 (h) (Homo sapiens, UniProt P46663); experiment: Cerep binding, agonist radioligand; conditions: read-out: % inhibition of control specific binding
T1 construct: purchased Cerep (Diversity Profile)
Text: as §1

BZD (central) = experiment: Cerep binding, agonist radioligand; conditions: 10 μM
Text: as §1

CRF1 (h) = target: T2, CRF1 (h) (Homo sapiens, UniProt P34998); experiment: Cerep binding, agonist radioligand; conditions: read-out: % inhibition of control specific binding
T2 construct: purchased Cerep (Diversity Profile)
Text: as §1

FXN = system: FXN; set-up: method as in PMID 16921367; conditions: cited from earlier work
ETA (h) = target: T3, ETA (h) (Homo sapiens, UniProt P25101); experiment: Cerep binding, agonist radioligand; conditions: read-out: % inhibition of control specific binding
T3 construct: purchased Cerep (Diversity Profile)
Text: as §1

P2X = experiment: Cerep binding, agonist radioligand; conditions: 10 μM
Text: as §1

T3 sequence (P25101 21-427): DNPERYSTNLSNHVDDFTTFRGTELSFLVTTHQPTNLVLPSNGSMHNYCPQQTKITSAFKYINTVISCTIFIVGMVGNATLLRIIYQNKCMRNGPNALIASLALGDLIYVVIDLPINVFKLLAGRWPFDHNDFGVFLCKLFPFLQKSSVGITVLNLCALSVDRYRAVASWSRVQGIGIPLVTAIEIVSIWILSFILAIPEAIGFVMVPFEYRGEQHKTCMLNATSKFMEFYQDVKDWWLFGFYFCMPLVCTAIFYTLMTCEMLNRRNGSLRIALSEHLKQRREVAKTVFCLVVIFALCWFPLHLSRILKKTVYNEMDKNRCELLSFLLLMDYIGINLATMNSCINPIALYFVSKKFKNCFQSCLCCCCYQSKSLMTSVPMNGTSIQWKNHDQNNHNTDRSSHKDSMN
T2 sequence (P34998 24-415): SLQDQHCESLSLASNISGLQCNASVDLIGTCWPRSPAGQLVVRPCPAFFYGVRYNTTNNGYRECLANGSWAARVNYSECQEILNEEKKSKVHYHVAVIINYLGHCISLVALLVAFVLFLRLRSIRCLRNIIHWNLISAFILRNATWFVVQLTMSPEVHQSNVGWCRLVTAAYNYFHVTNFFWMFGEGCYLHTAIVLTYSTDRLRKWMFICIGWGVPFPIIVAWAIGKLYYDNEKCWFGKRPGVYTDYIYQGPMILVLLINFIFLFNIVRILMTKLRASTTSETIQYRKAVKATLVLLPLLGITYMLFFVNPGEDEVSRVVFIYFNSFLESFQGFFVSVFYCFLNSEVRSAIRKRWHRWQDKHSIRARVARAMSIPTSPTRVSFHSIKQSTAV
T1 sequence (P46663 whole entry): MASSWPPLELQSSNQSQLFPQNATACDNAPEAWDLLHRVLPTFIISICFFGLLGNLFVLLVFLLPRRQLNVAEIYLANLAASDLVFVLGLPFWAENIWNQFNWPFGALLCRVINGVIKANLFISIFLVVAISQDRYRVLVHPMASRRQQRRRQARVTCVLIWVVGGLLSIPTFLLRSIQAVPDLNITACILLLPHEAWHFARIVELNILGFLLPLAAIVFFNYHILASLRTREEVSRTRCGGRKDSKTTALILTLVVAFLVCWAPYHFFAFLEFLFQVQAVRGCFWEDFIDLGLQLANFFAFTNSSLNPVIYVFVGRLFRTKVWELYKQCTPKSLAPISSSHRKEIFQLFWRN

Row | Compound | off-target profile in the Cerep Diversity Profile [1] | Papp A→B at 1 h, 10 µM ([2]; Caco-2, pH 7.4) | efflux ratio at 1 h, 10 µM ([2]; Caco-2, pH 7.4, read-out: effective efflux ratio) | efflux ratio at 1 h, 10 µM [3] | inhibition at 10 µM (B1 (h)) | % inhibition of control specific binding (BZD (central)) | inhibition at 10 µM (CRF1 (h)) | increase in FXN protein levels (FXN; at 2.5 µM) | enhancement of FXN mRNA (FXN; at 5 µM) | inhibition at 10 µM (ETA (h)) | % inhibition of control specific binding (P2X)
1 | Nc1ccccc1NC(=O)CCCCCC(=O)Nc1ccccc1 [Compound 4b] | clean | 15.6 ×10⁻⁶ cm/s | 3.5 | 4.9 | 5% | 4% | 0% | 3.5 fold | 2.5 fold | – | –
2 | O=C(CCCCCc1nc2ccccc2[nH]1)Nc1ccccc1 [Compound C1, 6-(1-H-benzo[d]imidazol-2-yl)-N-phenylhexanamide] | – | – | – | – | – | – | – | – | – | 2% | 5%
